In patent US20130109738A1, “Control of Cardiac Growth, Differentiation and Hypertrophy” (The Board of Trustees of the Leland Stanford Junior …, priority 2010, published 2013):
Entries after “also recorded” stand apart in the source; their conditions may differ.

Legend:
α-MHC promoter = test: Luciferase reporter assay of α-MHC promoter activity in SW13 cells; type: cell-based, human
Protocol: (§1) Cloning and Luciferase Reporter Assay Full length as well as serially truncated versions of intergenic α-MHC and β-MHC promoters were cloned into pREP4-Luc reporter plasmid, as detailed in the supplementary method. The constructs were transfected into SW13 cells with lipofectamine 2000 (Invitrogen, Calif.) along with pREP7-RL as a transfection efficiency control and Brg1 expression vector with the appropriate empty vector control. Luciferase activity was measured and normalized to that of Renilla luciferase construct using the Dual-Luciferase Reporter System (Promega, Wis.).
(§2) Cloning and Luciferase Reporter Assay Specific truncations for the reporter constructs are as follows: for α-MHC promoter, full length promoter spans from 4243 by upstream and 192 by downstream of the transcription start site (−4243, +192), serially truncated versions span (−2537, +192), (−1802, +192), and (−462, +192). Likewise, β-MHC promoters span (−3561, +222), (−1770, +222), and (−835, +222).

[1] = tested on: α-MHC and β-MHC expression in cardiac ventricles; test: Quantitative RT-PCR of ventricular α-MHC and β-MHC in cultured whole embryos; design: species or system mouse
Protocol: (§3) Whole embryo culture Embryos ([…]) with intact yolk sacs were isolated and incubated in 1 ml culture medium containing 97% rat serum (Harlan Biosciences, Cincinnati, Ohio), 2 mg glucose, 100 U penicillin G and 100 μg streptomycin that was rotated slowly at […] and gassed periodically (every 8 hours) with 20% oxygen, 5% carbon dioxide, 75% nitrogen from E8.75 to E9.5, and 70% oxygen, 5% carbon dioxide and 25% nitrogen from E9.5 to E10.5. BMP10 (10 nM, RD Systems, Minneapolis, Minn.), BSA (125 ng/ml), TSA (100-500 nM, Sigma-Aldrich, St. Louis, Mo.), PJ-34 (20 uM, Alexis Corporation, San Diego)), BrdU (30_g/mL, Simga-Aldrich) or DMSO was added directly to the culture medium or during the last six hours for BrdU. Embryos were harvested 36-48 hours later for analysis.
Quantitative RT-PCR analysis. Quantitative RT-PCR analyses were performed as described previously to examine gene expressions in the cardiac ventricles of E10.5/E11.5 embryonic hearts and adult hearts. The following primer sequences were used: Murine MHO, 5′ primer […], 3′ primer […]. Murine β-MHC, 5″ primer […], 3′ primer […]. Murine HPRT, 5′ primer GCTGGTGAAAAGGACCTCT, 3′ primer […]. Murine Brg1, 5″ primer […], 3′ primer […]. Human H3F3A, 5′ primer […], 3′ primer […]. Human Brg1, 5′ primer […], 3′ primer […]. Human α-MHC and β-MHC were by Taqman probes (Applied Biosciences, Foster City, Calif.. RT-PCR reactions were performed using SYBR green master mix (BioRad, Hercules, Calif.) or Taqman reagents (Applied Biosciences), and the primer sets were tested to be quantitative. Threshold cycles and melting curve measurements were performed with software.

β-MHC promoter = test: Luciferase reporter assay of β-MHC promoter activity in SW13 cells; type: cell-based, human
Protocol: as §1, §2

[2] = tested on: myocardial proliferation in cultured embryos; test: Myocardial BrdU incorporation in whole embryo culture; design: species or system mouse
Protocol: Quantitative analysis of myocardial development H&E-stained 7 μm paraffin sections were used for the morphometric analysis of the compact and trabecular myocardium. The following parameters were measured: thickness of compact 4 myocardium, number of trabeculi directly connected to compact myocardium, and trabecular area normalized to ventricular size. BrdU-stained sections were used to count the number of BrdU-positive cells per area of myocardium or per number of cells in the endocardium or endocardial cushions. All quantification and scale measurement were performed using NIS-Elements software (Nikon).
as §3
Proliferation and apoptosis analysis. Pregnant mice were injected with BrdU (Sigma, 100 μg/ml, intraperitoneal injection) for 6 hours prior to embryo isolation at E10.5 or E11.5. Incorporated BrdU was stained in the tissue-section of the heart according to manufacturer's protocol (Zymed Laboratories, South San Francisco, Calif.). Apoptosis of embryos were analyzed by TUNEL staining using a kit (Roche, Applied Science, Indianapolis, Ind.).

embryos = test: Gross morphology of cultured whole embryos; design: species or system mouse; conditions: whole embryos cultured from E9 to E10, compared to littermates treated with DMSO
Protocol: as §3

[3] = whole embryos cultured from E9 to E10, vs DMSO

Molecule: CN(C)CC(=O)Nc1ccc2[nH]c(=O)c3ccccc3c2c1 [PJ-34]
- effect on Brg1-mediated α-MHC repression (α-MHC promoter; SW13 cells, PARP1 inhibition): reduced
- MHC switch in cultured embryos ([1]; embryos cultured from E9 to E10, PJ-34 20 uM): exhibited α- and β-MHC switches; also recorded: causes MHC switch from β-MHC to α-MHC
- effect on Brg1-mediated β-MHC activation (β-MHC promoter; SW13 cells, PARP1 inhibition): reduced

Molecule: CC(/C=C/C(=O)NO)=C\[C@@H](C)C(=O)c1ccc(N(C)C)cc1 [TSA, trichostatin A]
- myocardial proliferation (BrdU incorporation) ([2]; wildtype embryos cultured from E8.75 to E10.5, BrdU last six hours, vs DMSO): normal
- effect on BAF-mediated repression of α-MHC reporter (α-MHC promoter; SW13 cells transfected with Brg1 expression vector): reversed the BAF-mediated repression of α-MHC
- increase in α/β MHC ratio [1, 3]: 3.5 folds
- α-MHC expression [1, 3]: significantly up-regulated
- β-MHC expression [1, 3]: down-regulated
- effect on Brg1-induced β-MHC promoter activation (β-MHC promoter; SW13 cells transfected with Brg1-expressing plasmid): no significant impact
- reduction of β-MHC promoter activity (β-MHC promoter; SW13 cells, basal activity without Brg1): 55%
- gross morphology of treated embryos (embryos): grossly normal

B1: BMP10: BMP10 protein (10 nM, RD Systems) required for the proliferation of myocardial cells (protein, UniProt O95393 317-424, looked up)
Bone morphogenetic protein 10: NAKGNYCKRTPLYIDFKEIGWDSWIIAPPGYEAYECRGVCNYPLAEHLTPTKHAIIQALVHLKNSQKASKACCVPTKLEPISILYLDKGVVTYKFKYEGMAVSECGCR
- increase of BrdU incorporation ([2]; Sm22αCre;Brg1F/F embryos cultured from E8.75 for 42 to 48 hours, BMP10 10 nM): 2.6 folds
- BrdU incorporation restored to (relative to control embryos) ([2]; Sm22αCre;Brg1F/F embryos cultured from E8.75 for 42 to 48 hours, BMP10 10 nM, untreated mutant 33+/−12%): 85+/−10%
- effect on premature MHC differentiation (α-MHC over-, β-MHC under-expression) ([1]; cultured Sm22αCre;Brg1F/F embryos, BMP10 vs BSA): failed to reverse the premature MHC differentiation
